From ChEMBL document CHEMBL6087455 (Eur J Med Chem, 2025)
Activity calls are given as the source filed them. No cut-off for these calls is given here.

Assays:
Neuronal like cell [1] = assay: Antioxidant activity in human neuronal like cells assessed as reduction in LPS/TNF-alpha-induced ROS production at 10 uM preincubated with compound for 24 hrs followed by compound washout and measured after 16 hrs of LPS/TNF-alpha addition by H2DCF-DA based fluorescence analysis; assay type: functional
Neuronal like cell [2] = assay: Neuroprotective activity against LPS/TNF-alpha-induced damage in human neuronal like cells assessed as increase in cell proliferation at 10 uM preincubated with compounds for 24 hrs followed by compound washout and measured after 16 hrs of LPS/TNF-alpha addition by MTS assay; assay type: functional, cell-based
A549 [3] = assay: Cytotoxicity against human A549 cells transfected with LC3-GFP plasmid assessed as decrease in cell number upto 10 uM; assay type: toxicity, cell-based; settings: a549, 10 µM
A549 [4] = assay: Induction of autophagy in human A549 cells transfected with LC3-GFP plasmid assessed as increase in number of LC3 puncta at >3 uM measured after 24 hrs by high-content confocal microscopic analysis; assay type: functional, cell-based
A549 [5] = assay: Induction of autophagy in human A549 cells assessed as decrease in p62 level at >3 uM measured after 24 hrs by Western blotting analysis relative to control; assay type: functional; parameters: scale not given: the % may be the effect or the level left
Caenorhabditis elegans [6] = assay: Anti-alzheimer activity in amyloid-beta aggregation induced Caenorhabditis elegans GMC101 assessed as increase in worm motility at 10 uM administered from day 4 of adulthood and measured on day 5 to 7; assay type: functional, organism-based; settings: time 4.0 day
Acetylcholinesterase = target: T1, Acetylcholinesterase (Rattus norvegicus, UniProt P37136); assay: Inhibition of wistar rat brain AChE using acetylthiocholine iodide as substrate preincubated for 10 mins followed by substrate addition and measured after 5 mins by DTNB reagent based spectrophotometric Ellman's method
T1 sequence (P37136 whole entry): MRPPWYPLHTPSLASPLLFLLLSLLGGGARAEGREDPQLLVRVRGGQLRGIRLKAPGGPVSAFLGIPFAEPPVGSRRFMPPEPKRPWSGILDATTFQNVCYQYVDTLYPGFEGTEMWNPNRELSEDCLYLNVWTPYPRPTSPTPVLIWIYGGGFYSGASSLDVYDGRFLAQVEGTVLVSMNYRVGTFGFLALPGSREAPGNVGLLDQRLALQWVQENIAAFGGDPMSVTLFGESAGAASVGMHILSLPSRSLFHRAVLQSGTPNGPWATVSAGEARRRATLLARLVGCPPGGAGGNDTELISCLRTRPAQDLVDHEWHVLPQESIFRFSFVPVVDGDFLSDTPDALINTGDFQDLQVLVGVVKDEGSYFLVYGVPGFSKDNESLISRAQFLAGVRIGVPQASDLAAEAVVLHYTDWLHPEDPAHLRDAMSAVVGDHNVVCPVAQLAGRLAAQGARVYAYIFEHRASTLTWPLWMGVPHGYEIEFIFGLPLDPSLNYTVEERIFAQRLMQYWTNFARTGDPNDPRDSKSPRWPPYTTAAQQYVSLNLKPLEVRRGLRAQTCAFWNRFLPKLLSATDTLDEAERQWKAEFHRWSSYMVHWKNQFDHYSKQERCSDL

BV-2 [7] = assay: Neuroprotective activity against LPS-induced neuronal damage in mouse BV-2 cells assessed as cell viability at 1 uM preincubated with compound for 1 hrs followed by LPS addition and measured after 24 hrs by Muse cell analyzer (reference value: 79.2 +/- 1.1 %); assay type: functional; settings: time 25 hrs, read-out: Activity
[8] = Neuroprotective activity against LPS/TNF-alpha-induced damage in human neuronal like cells assessed as restoration of cell function at 10 uM preincubated with compounds for 72 hrs followed by compound washout and measured after 16 hrs of LPS/TNF-alpha addition by MTS assay relative to control; assay type: functional
BV-2 [9] = assay: Antioxidant activity in LPS-induced mouse BV-2 cells assessed as reduction in ROS production at 1 uM preincubated with compound for 1 hrs followed by LPS addition and measured after 24 hrs by Muse cell analyzer relative to control; assay type: functional; parameters: scale not given: the % may be the effect or the level left
Caenorhabditis elegans [10] = assay: Anti-alzheimer activity in amyloid-beta aggregation induced Caenorhabditis elegans GMC101 assessed as improvement in speed of worm movement at 10 uM administered from day 4 of adulthood and measured on day 7; assay type: functional, organism-based; settings: time 4.0 day
A549 [11] = assay: Induction of autophagy in human A549 cells assessed as increase in LC3-II level at >3 uM measured after 24 hrs by Western blotting analysis; assay type: functional, cell-based
[12] = target: Amyloid-beta precursor protein (Homo sapiens) (UniProt P05067); assay: Inhibition of amyloid beta (1 to 42) (unknown origin) self aggregation at 10 uM preincubated with compound for 24 hrs followed by compound washout and measured after 24 hrs by ThT fluorescence based spectrophotometric analysis
Sequence of Amyloid-beta precursor protein (Homo sapiens) (P05067 whole entry): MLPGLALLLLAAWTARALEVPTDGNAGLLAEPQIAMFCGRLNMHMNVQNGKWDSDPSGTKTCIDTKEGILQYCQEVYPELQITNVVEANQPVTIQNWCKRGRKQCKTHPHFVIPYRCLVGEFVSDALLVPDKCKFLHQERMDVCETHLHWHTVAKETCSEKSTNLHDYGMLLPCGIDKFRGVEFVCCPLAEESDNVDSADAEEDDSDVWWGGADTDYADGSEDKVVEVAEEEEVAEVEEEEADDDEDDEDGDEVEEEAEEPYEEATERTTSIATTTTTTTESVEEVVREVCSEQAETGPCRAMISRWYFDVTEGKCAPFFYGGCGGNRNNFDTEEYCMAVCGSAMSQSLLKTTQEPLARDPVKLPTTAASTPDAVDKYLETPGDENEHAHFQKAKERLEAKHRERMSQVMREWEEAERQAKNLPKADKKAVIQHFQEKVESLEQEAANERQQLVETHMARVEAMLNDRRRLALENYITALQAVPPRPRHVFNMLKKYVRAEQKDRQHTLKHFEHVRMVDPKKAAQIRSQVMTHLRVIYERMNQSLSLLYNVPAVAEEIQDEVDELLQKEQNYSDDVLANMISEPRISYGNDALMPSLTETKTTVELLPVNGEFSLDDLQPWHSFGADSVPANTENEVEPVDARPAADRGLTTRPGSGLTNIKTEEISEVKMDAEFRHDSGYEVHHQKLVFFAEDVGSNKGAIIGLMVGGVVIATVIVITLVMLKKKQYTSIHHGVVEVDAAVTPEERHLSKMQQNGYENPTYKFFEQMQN

[13] = Induction of H2S release in PBS at pH 7.4 assessed as H2S concentration at 1 mM measured after 30 mins in presence of L-cysteine by Apollo-4000 free radical analyzer; assay type: functional
Caenorhabditis elegans [14] = assay: Anti-alzheimer activity in amyloid-beta aggregation induced Caenorhabditis elegans GMC101 assessed as improvement in displacement per bend of worm at 10 uM administered from day 4 of adulthood and measured on day 7; assay type: functional, organism-based; settings: time 4.0 day
Caenorhabditis elegans [15] = assay: Anti-alzheimer activity in amyloid-beta aggregation induced Caenorhabditis elegans GMC101 assessed as increase in worm fitness at 10 uM administered from day 4 of adulthood and measured on day 7 relative to control; assay type: functional; settings: time 4 day
BV-2 [16] = assay: Neuroprotective activity against LPS-induced neuronal damage in mouse BV-2 cells assessed as increase in cell viability at 1 uM preincubated with compound for 1 hrs followed by LPS addition and measured after 24 hrs by Muse cell analyzer; assay type: functional, cell-based; settings: time 25.0 hrs

In the case of `CCN(C)C(=O)Oc1cccc(C(N)=S)c1`, the Activity (Neuronal like cell [1]) is reported as “Active”, the Activity (Neuronal like cell [2]) is reported as “Active” and the Activity (A549 [3]) is reported as “Non-toxic”. The Activity (A549 [4]) was “Active”, the Activity (A549 [5]) was about 50% and the Activity (Caenorhabditis elegans [6]) was “Active”. It also gave an IC50 (Acetylcholinesterase) of 440 nM, a viability at 1 µM (BV-2 [7]) of 85.7% and an Activity [8] of 100%. For the same molecule, the Activity (BV-2 [9]; time 25 hrs) was 23%, the Activity (Caenorhabditis elegans [10]) was “Active; Slight Effect Observed” and the Activity (A549 [11]) was “Active”. For the same molecule, the inhibition [12] was “Active; Comparable Activity With Nahs Observed”, the Activity [13] was 10 µM and the Activity (Caenorhabditis elegans [14]) was “Active”. The Activity (Caenorhabditis elegans [15]) was 10.5%.

In the case of `CCN(C)C(=O)Oc1cccc(CCN=C=S)c1`, the IC50 (Acetylcholinesterase) is reported as 1370 nM, the Activity (BV-2 [9]; time 25 hrs) is reported as 10% and the Activity (BV-2 [16]) is reported as “inactive”.

`CCN(C)C(=O)Oc1cccc(CN=C=S)c1` gave an IC50 (Acetylcholinesterase) of 2190 nM, a viability at 1 µM (BV-2 [7]) of 85.3% and an Activity (BV-2 [9]; time 25 hrs) of 10%.

For `CCN(C)C(=O)Oc1cccc(N=C=S)c1`, the IC50 (Acetylcholinesterase) was 870 nM, the viability at 1 µM (BV-2 [7]) was 85.5% and the Activity (BV-2 [9]; time 25 hrs) was 10%.

In the case of `CCN(C)C(=O)Oc1cccc([C@H](C)N(C)C)c1` [RIVASTIGMINE], the viability at 1 µM (BV-2 [7]) is reported as 84.1% and the Activity (BV-2 [9]; time 25 hrs) is reported as about 10%.

`[Na+].[SH-]` [SODIUM HYDROSULFIDE] gave a viability at 1 µM (BV-2 [7]) of 87.2% and an Activity (BV-2 [9]; time 25 hrs) of 27%.

With `CCN(C)C(=O)Oc1cccc(NC(=O)c2ccc(N=C=S)cc2)c1` the IC50 (Acetylcholinesterase) was 510 nM, the Activity (BV-2 [9]; time 25 hrs) was 10% and the Activity (BV-2 [16]) was “inactive”.

With `CCN(C)C(=O)Oc1cccc(NC(=O)COc2ccc(-c3cc(=S)ss3)cc2)c1` the IC50 (Acetylcholinesterase) was 410 nM, the Activity (BV-2 [9]; time 25.0 hrs) was “inactive” and the Activity (BV-2 [16]) was “inactive”.
